{"source": "ChEMBL document CHEMBL4321854", "about": "“Discovery of a First-in-Class Mitogen-Activated Protein Kinase Kinase 1/2 Degrader” (J Med Chem, 2019)", "key": {"[1]": {"target": "T1, von Hippel-Lindau disease tumor suppressor/Dual specificity mitogen-activated protein kinase kinase 2 (Homo sapiens) (UniProt P36507+P40337)", "T1 sequence (P36507 whole entry, looked up)": "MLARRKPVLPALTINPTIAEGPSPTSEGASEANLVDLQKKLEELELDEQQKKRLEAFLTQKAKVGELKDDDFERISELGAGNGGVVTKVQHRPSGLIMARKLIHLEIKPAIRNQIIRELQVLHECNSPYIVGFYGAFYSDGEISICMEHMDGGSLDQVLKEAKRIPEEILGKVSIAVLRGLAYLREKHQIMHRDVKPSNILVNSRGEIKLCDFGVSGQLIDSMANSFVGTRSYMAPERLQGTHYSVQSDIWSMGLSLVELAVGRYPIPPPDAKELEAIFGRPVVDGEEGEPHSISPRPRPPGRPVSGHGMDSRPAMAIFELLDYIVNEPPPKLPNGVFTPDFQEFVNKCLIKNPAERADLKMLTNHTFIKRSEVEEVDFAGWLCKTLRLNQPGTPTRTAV", "T1 sequence (P40337 whole entry, looked up)": "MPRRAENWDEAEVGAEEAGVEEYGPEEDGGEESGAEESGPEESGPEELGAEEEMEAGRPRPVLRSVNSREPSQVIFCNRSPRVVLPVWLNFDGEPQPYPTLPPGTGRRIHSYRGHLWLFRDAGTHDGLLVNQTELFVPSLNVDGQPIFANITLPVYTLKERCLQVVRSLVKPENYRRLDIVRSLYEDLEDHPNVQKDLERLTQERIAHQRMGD", "experiment": "Protac activity against VHL/MEK2 in human UACC257 cells harboring with BRAF V600E variant assessed as degradation of MEK2 at 3 to 5 uM after 24 hrs by Western blot analysis", "assay_type": "cell-based"}, "[2]": {"target": "T1, von Hippel-Lindau disease tumor suppressor/Dual specificity mitogen-activated protein kinase kinase 2 (Homo sapiens)", "experiment": "Protac activity against VHL/MEK2 in human HT-29 cells harboring with BRAF V600E variant assessed as degradation of MEK2 by measuring reduction in MEK2 protein level at 0.1 to 0.3 uM after 2 hrs by Western blot analysis", "assay_type": "cell-based"}, "[3]": {"target": "T2, von Hippel-Lindau disease tumor suppressor/Dual specificity mitogen-activated protein kinase kinase 2/Dual specificity mitogen-activated protein kinase kinase 1 (Homo sapiens) (UniProt P36507+Q02750+P40337)", "T2 sequence (P36507 whole entry, looked up)": "as the sequence (P36507 whole entry, looked up) above", "T2 sequence (P40337 whole entry, looked up)": "as the sequence (P40337 whole entry, looked up) above", "T2 sequence (Q02750 whole entry, looked up)": "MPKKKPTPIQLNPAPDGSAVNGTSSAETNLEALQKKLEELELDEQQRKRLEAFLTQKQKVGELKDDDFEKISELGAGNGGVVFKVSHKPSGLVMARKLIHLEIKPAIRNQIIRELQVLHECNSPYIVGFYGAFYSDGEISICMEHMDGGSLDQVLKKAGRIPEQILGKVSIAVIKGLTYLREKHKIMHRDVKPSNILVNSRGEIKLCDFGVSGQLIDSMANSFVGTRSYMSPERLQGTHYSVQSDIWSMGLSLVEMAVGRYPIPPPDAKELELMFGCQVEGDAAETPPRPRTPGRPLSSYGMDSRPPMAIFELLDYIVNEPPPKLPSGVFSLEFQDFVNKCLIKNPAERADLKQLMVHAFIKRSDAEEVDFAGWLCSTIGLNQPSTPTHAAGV", "experiment": "Protac activity against VHL/MEK1/2 in human SK-MEL-28 cells harboring with BRAF V600E variant assessed as reduction in phosphorylation of ERK at T202/Y204 residues after 24 hrs by Western blot analysis", "assay_type": "cell-based"}, "[4]": {"target": "T2, von Hippel-Lindau disease tumor suppressor/Dual specificity mitogen-activated protein kinase kinase 2/Dual specificity mitogen-activated protein kinase kinase 1 (Homo sapiens)", "experiment": "Protac activity against VHL/MEK1/2 in human HT-29 cells harboring with BRAF V600E variant assessed as phosphorylation of ERK at T202/Y204 residues at 0.3 uM pretreated with MEK1/2 inhibitor, PD0325901 for 2 hrs followed by incubation with compound for 10 hrs by Western blot analysis", "assay_type": "cell-based"}, "[5]": {"target": "T2, von Hippel-Lindau disease tumor suppressor/Dual specificity mitogen-activated protein kinase kinase 2/Dual specificity mitogen-activated protein kinase kinase 1 (Homo sapiens)", "experiment": "Protac activity against VHL/MEK1/2 in human HT-29 cells harboring with BRAF V600E variant assessed as reduction in phosphorylation of MEK at S218/222 residues after 24 hrs by Western blot analysis", "assay_type": "cell-based"}, "[6]": {"target": "T2, von Hippel-Lindau disease tumor suppressor/Dual specificity mitogen-activated protein kinase kinase 2/Dual specificity mitogen-activated protein kinase kinase 1 (Homo sapiens)", "experiment": "Protac activity against VHL/MEK1/2 in human HT-29 cells harboring with BRAF V600E variant assessed as phosphorylation of ERK at T202/Y204 residues at 0.3 uM pretreated with NEDD8-activating enzyme inhibitor, MLN4924 for 2 hrs followed by incubation with compound for 10 hrs by Western blot analysis", "assay_type": "cell-based"}, "[7]": {"target": "T2, von Hippel-Lindau disease tumor suppressor/Dual specificity mitogen-activated protein kinase kinase 2/Dual specificity mitogen-activated protein kinase kinase 1 (Homo sapiens)", "experiment": "Protac activity against VHL/MEK1/2 in human HT-29 cells harboring with BRAF V600E variant assessed as phosphorylation of MEK at S218/222 residues at 0.3 uM pretreated with VHL ligand, VH 032 for 2 hrs followed by incubation with compound for 10 hrs by Western blot analysis", "assay_type": "cell-based"}, "[8]": {"target": "Dual specificity mitogen-activated protein kinase kinase 1 (Homo sapiens, UniProt Q02750)", "sequence (Q02750 whole entry)": "as the sequence (Q02750 whole entry, looked up) above", "experiment": "Inhibition of recombinant full length human His-tagged MEK1 expressed in baculovirus expression system using ERK K52R dead variant as substrate preincubated for 20 mins followed by incubation with 33P-ATP addition for 2 hrs by hotspot kinase assay"}, "[9]": {"target": "T3, von Hippel-Lindau disease tumor suppressor/Dual specificity mitogen-activated protein kinase kinase 1 (Homo sapiens) (UniProt Q02750+P40337)", "T3 sequence (P40337 whole entry, looked up)": "as the sequence (P40337 whole entry, looked up) above", "T3 sequence (Q02750 whole entry, looked up)": "as the sequence (Q02750 whole entry, looked up) above", "experiment": "Protac activity against VHL/MEK1 in human HT-29 cells harboring with BRAF V600E variant assessed as degradation of MEK1 by measuring MEK1 protein level at 0.3 uM pretreated with proteasome inhibitor, MG-132 for 2 hrs followed by incubation with compound for 10 hrs by Western blot analysis", "assay_type": "cell-based"}, "[10]": {"target": "T1, von Hippel-Lindau disease tumor suppressor/Dual specificity mitogen-activated protein kinase kinase 2 (Homo sapiens)", "experiment": "Protac activity against VHL/MEK2 in human SK-MEL-28 cells harboring with BRAF V600E variant assessed as degradation of MEK2 by measuring reduction in MEK2 protein level at 0.3 uM after 24 hrs by Western blot analysis relative to control", "assay_type": "cell-based", "set-up": "scale not given: the % may be the effect or the level left"}, "[11]": {"target": "T2, von Hippel-Lindau disease tumor suppressor/Dual specificity mitogen-activated protein kinase kinase 2/Dual specificity mitogen-activated protein kinase kinase 1 (Homo sapiens)", "experiment": "Protac activity against VHL/MEK1/2 in human SK-MEL-28 cells harboring with BRAF V600E variant assessed as reduction in phosphorylation of MEK at S218/222 residues at 0.1 to 0.3 after >= 2 hrs by Western blot analysis", "assay_type": "cell-based"}, "[12]": {"target": "T3, von Hippel-Lindau disease tumor suppressor/Dual specificity mitogen-activated protein kinase kinase 1 (Homo sapiens)", "experiment": "Protac activity against VHL/MEK1 in human SK-MEL-28 cells harboring with BRAF V600E variant assessed as degradation of MEK1 by measuring reduction in MEK1 protein level at 0.3 uM after 8 hrs by Western blot analysis relative to control", "assay_type": "cell-based", "set-up": "scale not given: the % may be the effect or the level left"}, "[13]": {"experiment": "Ratio of Plasma concentration in Swiss albino mouse at 50 mg/kg, ip measured after 8 hrs to GI50 for antiproliferative activity against human COLO205 cells", "assay_type": "organism-based", "conditions": "in vivo"}, "[14]": {"test_system": "UACC-257", "experiment": "Antiproliferative activity against human UACC257 cells assessed as reduction in cell growth after 3 days by MTT assay", "assay_type": "functional"}, "[15]": {"experiment": "Toxicity in Swiss albino mouse assessed as effect on clinical signs at 50 mg/kg, ip", "assay_type": "organism-based", "conditions": "in vivo"}, "[16]": {"target": "T2, von Hippel-Lindau disease tumor suppressor/Dual specificity mitogen-activated protein kinase kinase 2/Dual specificity mitogen-activated protein kinase kinase 1 (Homo sapiens)", "experiment": "Protac activity against VHL/MEK1/2 in human HT-29 cells harboring with BRAF V600E variant assessed as reduction in phosphorylation of MEK at S218/222 residues at 0.3 uM incubated for 6 days by Western blot analysis", "assay_type": "cell-based"}, "[17]": {"target": "T2, von Hippel-Lindau disease tumor suppressor/Dual specificity mitogen-activated protein kinase kinase 2/Dual specificity mitogen-activated protein kinase kinase 1 (Homo sapiens)", "experiment": "Protac activity against VHL/MEK1/2 in human HT-29 cells harboring with BRAF V600E variant assessed as reduction in phosphorylation of ERK at T202/Y204 residues after 24 hrs by Western blot analysis", "assay_type": "cell-based"}, "[18]": {"target": "T3, von Hippel-Lindau disease tumor suppressor/Dual specificity mitogen-activated protein kinase kinase 1 (Homo sapiens)", "experiment": "Protac activity against VHL/MEK1 in human SK-MEL-28 cells harboring with BRAF V600E variant assessed as degradation of MEK1 by measuring reduction in MEK1 protein level at 0.3 uM after 24 hrs by Western blot analysis relative to control", "assay_type": "cell-based", "set-up": "scale not given: the % may be the effect or the level left"}, "[19]": {"target": "T2, von Hippel-Lindau disease tumor suppressor/Dual specificity mitogen-activated protein kinase kinase 2/Dual specificity mitogen-activated protein kinase kinase 1 (Homo sapiens)", "experiment": "Protac activity against VHL/MEK1/2 in human SK-MEL-28 cells harboring with BRAF V600E variant assessed as phosphorylation of MEK at S218/222 residues at 0.3 uM pretreated with MEK1/2 inhibitor, PD0325901 for 2 hrs followed by incubation with compound for 2 hrs by Western blot analysis", "assay_type": "cell-based"}, "[20]": {"target": "T1, von Hippel-Lindau disease tumor suppressor/Dual specificity mitogen-activated protein kinase kinase 2 (Homo sapiens)", "experiment": "Protac activity against VHL/MEK2 in human HT-29 cells harboring with BRAF V600E variant assessed as degradation of MEK2 at 0.1 to 0.3 uM by Western blot analysis", "assay_type": "cell-based", "conditions": "TDE = time-dependent effect"}, "[21]": {"target": "T2, von Hippel-Lindau disease tumor suppressor/Dual specificity mitogen-activated protein kinase kinase 2/Dual specificity mitogen-activated protein kinase kinase 1 (Homo sapiens)", "experiment": "Protac activity against VHL/MEK1/2 in human HT-29 cells harboring with BRAF V600E variant assessed as phosphorylation of MEK at S218/222 residues at 0.3 uM pretreated with proteasome inhibitor, MG-132 for 2 hrs followed by incubation with compound for 10 hrs by Western blot analysis", "assay_type": "cell-based"}, "[22]": {"target": "T2, von Hippel-Lindau disease tumor suppressor/Dual specificity mitogen-activated protein kinase kinase 2/Dual specificity mitogen-activated protein kinase kinase 1 (Homo sapiens)", "experiment": "Protac activity against VHL/MEK1/2 in human HT-29 cells harboring with BRAF V600E variant assessed as reduction in phosphorylation of ERK at T202/Y204 residues at 0.3 uM after 24 to 144 hrs by Western blot analysis", "assay_type": "cell-based"}, "[23]": {"target": "T2, von Hippel-Lindau disease tumor suppressor/Dual specificity mitogen-activated protein kinase kinase 2/Dual specificity mitogen-activated protein kinase kinase 1 (Homo sapiens)", "experiment": "Protac activity against VHL/MEK1/2 in human HT-29 cells harboring with BRAF V600E variant assessed as phosphorylation of MEK at S218/222 residues at 0.3 uM pretreated with NEDD8-activating enzyme inhibitor, MLN4924 for 2 hrs followed by incubation with compound for 10 hrs by Western blot analysis", "assay_type": "cell-based"}, "[24]": {"target": "T3, von Hippel-Lindau disease tumor suppressor/Dual specificity mitogen-activated protein kinase kinase 1 (Homo sapiens)", "experiment": "Protac activity against VHL/MEK1 in human SK-MEL-28 cells harboring with BRAF V600E variant assessed as degradation of MEK1 at 0.1 to 0.3 uM after 4 hrs by Western blot analysis", "assay_type": "cell-based"}}, "note": "Calls of active or inactive are those of the source. The calls are words filed in the database; no cut-off is given here."}
{"smiles": "Cc1ncsc1-c1ccc([C@H](C)NC(=O)[C@@H]2C[C@@H](O)CN2C(=O)[C@@H](NC(=O)CCCCCCCCCCNCCCONC(=O)c2ccc(F)c(F)c2Nc2ccc(I)cc2F)C(C)(C)C)cc1", "values": [{"measurement": "Activity", "setting": "[1]", "result": "Active"}, {"measurement": "Activity", "setting": "[2]", "result": "Active"}, {"measurement": "Activity", "setting": "[3]", "result": "Dose-dependent effect"}, {"measurement": "Activity", "setting": "[4]", "result": "inactive"}, {"measurement": "Activity", "setting": "[5]", "result": "Dose-dependent effect"}, {"measurement": "Activity", "setting": "[6]", "result": "inactive"}, {"measurement": "Activity", "setting": "[7]", "result": "inactive"}, {"measurement": "IC50", "setting": "[8]", "result": 1500, "unit": "nM"}, {"measurement": "Activity", "setting": "[9]", "result": "inactive"}, {"measurement": "Activity", "setting": "[10]", "result": "> 90", "unit": "%"}, {"measurement": "Activity", "setting": "[11]", "result": "Active"}, {"measurement": "Activity", "setting": "[12]", "result": "> 80", "unit": "%"}, {"measurement": "Ratio", "setting": "[13]", "result": "3 to 20"}, {"measurement": "growth inhibition (GI)", "setting": "[14]", "result": "Dose-dependent effect"}, {"measurement": "GI50", "setting": "[14]; UACC-257, 72 h", "result": "30 to 200", "unit": "nM"}, {"measurement": "Activity", "setting": "[15]", "result": "Non-Toxic"}, {"measurement": "Activity", "setting": "[16]", "result": "Active"}, {"measurement": "Activity", "setting": "[17]", "result": "Dose-dependent effect"}, {"measurement": "Activity", "setting": "[18]", "result": "> 90", "unit": "%"}, {"measurement": "Activity", "setting": "[19]", "result": "inactive"}, {"measurement": "Activity", "setting": "[20]", "result": "Tde"}, {"measurement": "Activity", "setting": "[21]", "result": "inactive"}, {"measurement": "Activity", "setting": "[22]", "result": "Active"}, {"measurement": "Activity", "setting": "[23]", "result": "inactive"}, {"measurement": "Activity", "setting": "[24]", "result": "Active"}]}
